Tests used:
L1210 [1] = tested on: L1210
Description: (§1) Cross resistance profile versus L1210/R71 cells.

[2] = octanol/water, pH 7.4
CHRC5 cell line [3] = format: functional, Cricetulus griseus
Description: Effect on collateral sensitivity of CHRC5 cells to local anesthetics/steroids.

physchem = conditions: octanol/water, pH 7.4
CHO [4] = assay: Effect on cross resistance of chinese hamster ovary CHO cells resistant to colchicine (CHRC5); format: functional, Cricetulus griseus
L1210 [5] = assay: Cross resistance to the compound expressed as as log of ratio of molar concentration of drug inducing 50% inhibition of growth in murine leukemia L1210/R71 and L1210/0 cells; format: functional, Mus musculus
CHO [6] = assay: Cross resistance of chinese hamster cells resistant to actinomycin D as log of ratio of molar concentration of compound inducing 50% inhibition of growth in resistant and sensitive cells; format: functional, Cricetulus griseus
L1210 [7] = assay: Cross resistance to the compound expressed as log of ratio of molar concentration of drug inducing 50% inhibition of growth in murine leukemia L1210/R71 and L1210/0 cells; format: functional, Mus musculus
CCRF-CEM [8] = assay: Effect on cross resistance of CCRF-CEM cells resistant to vincristine expressed as log of ratio of molar concentration of compound inducing 50% growth inhibition in resistant to sensitive cells; format: functional, Homo sapiens
CHRC5 cell line [9] = tested on: CHRC5 cell line
Description: Collateral sensitivity of CHRC5 cells to local anesthetics/steroids as log of ratio of molar concentration of drug inducing 50% growth inhibition in CHO AUXB1 cells to that of CHRC5 cells

CCRF-CEM [10] = assay: Effect on cross resistance of CCRF-CEM cells resistant to vincristine expressed as as log of ratio of molar concentration of compound inducing 50% growth inhibition in resistant to sensitive cells; format: functional, Homo sapiens
L1210 [11] = conditions: Mus musculus
Description: as §1

CHO [12] = conditions: Cricetulus griseus
Description: Effect on cross resistance of CHO cells resistant to colchicine (CHRC5)

Molecule: CC1(C)N=C(N)N=C(N)N1c1cccc(C(N)=O)c1
- Log CR (L1210 [1]): 1.85
- logD [2]: -4.49

Molecule: C[C@]12CC[C@H]3[C@@H](CCC4=CC(=O)CC[C@@]43C)[C@@H]1CC[C@@H]2C(=O)CO [DESOXYCORTICOSTERONE]
- Log sensitivity (CHRC5 cell line [3]): 1
- logD (physchem): 3.08

Molecule: CC[C@H]1CN2CCc3cc(OC)c(OC)cc3[C@@H]2C[C@@H]1C[C@H]1NCCc2cc(OC)c(OC)cc21 [EMETINE]
- Log CR (CHO [4]): 1.46
- logD (physchem): 3.24

Molecule: CCc1nc(N)nc(N)c1-c1ccc(Cl)c(Cl)c1 [ETOPRINE]
- Log CR (L1210 [5]): 1.69
- logD (physchem): 2.93

Molecule: C[n+]1c2cc(N)ccc2cc2ccc(N)cc21.[Cl-] [EUFLAVINE]
- Log CR (CHO [4]): 0.84
- logD (physchem): 1.6

Molecule: Sc1ncnc2nc[nH]c12 [MERCAPTOPURINE ANHYDROUS]
- Log CR (CHO [6]): -0.3
- Log CR (L1210 [7]): 0.6
- logD (physchem): 0.01

Molecule: CN(Cc1cnc2nc(N)nc(N)c2n1)c1ccc(C(=O)N[C@@H](CCC(=O)O)C(=O)O)cc1 [METHOTREXATE]
- Log CR (L1210 [5]): 2.55
- Log CR (CHO [6]): 0.04
- logD (physchem): -2.52

Molecule: COc1cc([C@@H]2c3cc4c(cc3[C@H](O)[C@H]3COC(=O)[C@H]23)OCO4)cc(OC)c1OC [PODOFILOX]
- Log CR (CCRF-CEM [8]): 0.07
- logD (physchem): 2.01

Molecule: CCN(CC)CCOC(=O)c1ccc(N)cc1 [PROCAINE]
- Log sensitivity (CHRC5 cell line [9]): 0.4
- logD (physchem): 0.3

Molecule: Nc1ccc2cc3ccc(N)cc3nc2c1 [PROFLAVINE]
- Log CR (CHO [4]): 0.6
- Log CR (CHO [6]): 0.46
- logD (physchem): 1.1

Molecule: CC(C)NCC(O)COc1cccc2ccccc12 (stereo not drawn) [PROPRANOLOL]
- Log sensitivity (CHRC5 cell line [9]): 0.7

Molecule: COc1cc([C@@H]2c3cc4c(cc3[C@@H](O[C@@H]3O[C@@H]5CO[C@@H](c6cccs6)O[C@H]5[C@H](O)[C@H]3O)[C@H]3COC(=O)[C@H]23)OCO4)cc(OC)c1O [TENIPOSIDE]
- Log CR (CCRF-CEM [10]): 1.56
- logD (physchem): 1.22

Molecule: CCCC[N+](CCCC)(CCCC)CCCC.[Br-] [TETRABUTYLAMMONIUM BROMIDE]
- Log sensitivity (CHRC5 cell line [3]): -0.84
- logD (physchem): -3

Molecule: CCCCNc1ccc(C(=O)OCCN(C)C)cc1 [TETRACAINE]
- logD [2]: 1
- Log sensitivity (CHRC5 cell line [9]): 0.7

Molecule: BLEOMYCIN [listing 1 of 2 here]
- logD [2]: -2.38

Molecule: BLEOMYCIN [listing 2 of 2 here]
- Log CR (L1210 [11]): 0.24
- Log CR (CHO [12]): 0
